What was measured:
[1] = mn = molality of the nth substance listed, in mol/kg; conditions: 101 kPa, Liquid; for speed of sound: Sing-around technique in a fixed-path interferometer; for mass density: Vibrating tube method
[2] = 101 kPa, Liquid, Sing-around technique in a fixed-path interferometer

O=C([O-])CC(O)(CC(=O)[O-])C(=O)[O-].[Na+].[Na+].[Na+] [trisodium citrate] + O
[1]
Conditions | mass density, 288.15 K [kg/m3] | mass density, 298.15 K [kg/m3] | mass density, 308.15 K [kg/m3] | mass density, 318.15 K [kg/m3] | speed of sound, 288.15 K [m/s] | speed of sound, 298.15 K [m/s] | speed of sound, 308.15 K [m/s] | speed of sound, 318.15 K [m/s]
m1 = 0.2 | 1034.67 | 1031.98 | 1028.5 | 1024.36 | 1508 | 1536 | 1556.9 | 1571.8
m1 = 0.4 | 1071.21 | 1067.93 | 1064.13 | 1059.23 | 1552.2 | 1577.5 | 1595.8 | 1608.3
m1 = 0.6 | 1104.43 | 1100.68 | 1096.96 | 1092.26 | 1591.5 | 1614 | 1630.3 | 1641.2
m1 = 0.8 | 1137.97 | 1133.93 | 1129.43 | 1124.5 | 1634 | 1653.8 | 1667.3 | 1676.2

O [water]
[2]
Conditions | speed of sound [m/s]
288.15 K | 1463.1
298.15 K | 1495.8
308.15 K | 1519.1

From the NIST ThermoML archive (doi:10.1016/j.jct.2013.08.010)
